Each structure is given as a SMILES string.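 How tested: cells in 96-well plates exposed to compound for 48 hours at five concentrations. TGI is the concentration that stops growth completely.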 Where only a bound is given, the exact number is not on record here.

Test systems include HCT-116 colon; 786-0 renal; NCI-H460 lung; ACHN renal; DMS 114 small cell lung; LXFL 529 NSCLC; XF 498 CNS; TK-10 renal; LOX IMVI melanoma; SW-620 colon; SN12C renal.
Holding throughout (assay): NCI-60 cell line screen, 48 h

In the case of `CC1=[N+]([O-])c2ccccc2C(=O)C1=O`, the TGI in the assay on HCT-116 colon, with 786-0 renal, in the assay on NCI-H460 lung, in the assay on ACHN renal, with DMS 114 small cell lung and with LXFL 529 NSCLC was above 100 µM throughout. Also, the TGI with XF 498 CNS, in the assay on TK-10 renal, with LOX IMVI melanoma, in the assay on SW-620 colon and with SN12C renal was above 100 µM each time.
For `COC(=O)C(CC(=O)Nc1ccc(C)cc1)C(=O)C(=O)Nc1c(C(C)C)cccc1C(C)C` (centres undefined), the TGI with HCT-116 colon, with 786-0 renal, in the assay on NCI-H460 lung, in the assay with ACHN renal, with DMS 114 small cell lung and with LXFL 529 NSCLC was above 100 µM each time. Further, the TGI with XF 498 CNS, in the assay with TK-10 renal, in the assay with LOX IMVI melanoma, in the assay on SW-620 colon and with SN12C renal was above 100 µM in each case.
On to `COc1ccc2c3c([nH]c2c1[N+](=O)[O-])C(C)N(C)CC3` (centres undefined), for which the TGI with HCT-116 colon, in the assay with 786-0 renal, in the assay on NCI-H460 lung, in the assay on ACHN renal, in the assay with DMS 114 small cell lung and in the assay on LXFL 529 NSCLC was above 100 µM each time. The TGI in the assay with XF 498 CNS, with TK-10 renal, with SW-620 colon and in the assay with SN12C renal was above 100 µM each time.
For the molecule `[N-]=[N+]=C1C(=O)NN=C1c1ccccc1`, the TGI with HCT-116 colon, in the assay on 786-0 renal, with NCI-H460 lung, in the assay on ACHN renal, in the assay with DMS 114 small cell lung and in the assay on LXFL 529 NSCLC was above 100 µM in each case. Further, the TGI with XF 498 CNS, with TK-10 renal, with LOX IMVI melanoma, in the assay on SW-620 colon and with SN12C renal was above 100 µM in each case.
Regarding `O=C(c1cccc2ccccc12)N1CCC(C2CCN(C(=O)c3cccc4ccccc34)CC2)CC1`, the TGI in the assay with HCT-116 colon, with 786-0 renal, with NCI-H460 lung, with ACHN renal, in the assay with DMS 114 small cell lung and in the assay on LXFL 529 NSCLC was above 100 µM each time. In addition, the TGI in the assay on XF 498 CNS, in the assay on TK-10 renal, in the assay with LOX IMVI melanoma, in the assay on SW-620 colon and in the assay on SN12C renal was above 100 µM throughout.
On to `Cc1[nH]c(=O)nc2[nH][nH]c(=O)c12`, for which the TGI with HCT-116 colon, with 786-0 renal, in the assay with NCI-H460 lung, with ACHN renal, in the assay with DMS 114 small cell lung and in the assay with LXFL 529 NSCLC was above 100 µM each time. Besides, the TGI in the assay with TK-10 renal, in the assay with LOX IMVI melanoma, with SW-620 colon and in the assay on SN12C renal was above 100 µM in each case.
With `COc1ccc(CN2CC(C)(C)C2=O)c(OC)c1`, the TGI in the assay on HCT-116 colon, in the assay with 786-0 renal, with NCI-H460 lung, with ACHN renal, in the assay on DMS 114 small cell lung and with XF 498 CNS was above 100 µM each time. In addition, the TGI with TK-10 renal, with LOX IMVI melanoma, in the assay with SW-620 colon and with SN12C renal was above 100 µM throughout.
As for `O=C(N/N=C/c1cc(Br)ccc1O)N/N=C/c1cc(Br)ccc1O`, the TGI in the assay with 786-0 renal, in the assay on NCI-H460 lung, in the assay with ACHN renal, in the assay with DMS 114 small cell lung, with XF 498 CNS and in the assay on TK-10 renal was above 100 µM each time. Besides, the TGI with LOX IMVI melanoma, in the assay with SW-620 colon and in the assay with SN12C renal was above 100 µM each time.
Take `Cc1nnc(NS(=O)(=O)c2ccc(N=Nc3cc(N=Nc4ccc(S(=O)(=O)Nc5nnc(C)s5)cc4)c4c(NC(=O)C(Cl)Cl)cccc4c3OC(=O)C(Cl)Cl)cc2)s1` (tested in a mixture with another compound): the TGI with HCT-116 colon was 41.7 µM; with 786-0 renal it was above 100 µM; in the assay on NCI-H460 lung it was above 100 µM; with DMS 114 small cell lung it was 62.5 µM; with LXFL 529 NSCLC it was above 100 µM; in the assay with XF 498 CNS it was 92.9 µM. Moreover, the TGI in the assay on TK-10 renal was 95.6 µM; with LOX IMVI melanoma, above 100 µM; with SW-620 colon, above 100 µM; in the assay with SN12C renal, above 100 µM.
Regarding `CN(C)CCC1(C2=CCCC2)CC/C(=C\c2ccc(Cl)cc2)C1=O` (centres undefined), the TGI in the assay with HCT-116 colon was 22.3 µM; in the assay with 786-0 renal it was 15.2 µM; with NCI-H460 lung, 26.9 µM; with ACHN renal it was 23.8 µM; with DMS 114 small cell lung, 21.8 µM; in the assay with LXFL 529 NSCLC, 21.4 µM. For the same molecule, the TGI with XF 498 CNS came to 19.1 µM; in the assay with TK-10 renal, 23.3 µM; in the assay with LOX IMVI melanoma, 23.1 µM; in the assay with SW-620 colon, 24.2 µM; in the assay with SN12C renal, 24.3 µM.
On to `O=C(O)CNS(=O)(=O)c1ccc(NC(=O)c2ccc([N+](=O)[O-])cc2)cc1`, for which the TGI in the assay on 786-0 renal, with NCI-H460 lung, in the assay on ACHN renal, in the assay on LXFL 529 NSCLC, with XF 498 CNS and in the assay on TK-10 renal was above 100 µM in each case. Also, the TGI in the assay with LOX IMVI melanoma, with SW-620 colon and in the assay on SN12C renal was above 100 µM throughout.
With `O=C(CCc1nc(=S)[nH][nH]1)Nc1ccccc1Cl`, the TGI in the assay on HCT-116 colon, in the assay on 786-0 renal, in the assay on NCI-H460 lung, in the assay on ACHN renal, with DMS 114 small cell lung and with LXFL 529 NSCLC was above 100 µM in each case. The TGI with XF 498 CNS is above 100 µM; in the assay with TK-10 renal, above 100 µM; with LOX IMVI melanoma, above 100 µM; in the assay on SW-620 colon, 35.6 µM; in the assay with SN12C renal, above 100 µM.
